According to publication PMC6259458, “Investigating the Spectrum of Biological Activity of Ring-Substituted Salicylanilides and Carbamoylphenylcarbamates” (Molecules, 2010):
≈ marks a conversion by molar mass, not a printed value. Read-outs that look alike come from different tables or passages of the source.

Tests used:
[1] = test system: photosynthetic electron transport (PET) in spinach chloroplasts; assay: Inhibition of photosynthetic electron transport (PET) in spinach chloroplasts, DCPIP photoreduction; type: biochemical, Spinacia oleracea L.; settings: for IC50: DCPIP photoreduction, pH 7.2
Experimental: Chloroplasts were prepared from spinach (Spinacia oleracea L.) according to Masarovicova and Kralova. The inhibition of photosynthetic electron transport (PET) in spinach chloroplasts was determined spectrophotometrically (Genesys 6, Thermo Scientific, USA), using an artificial electron acceptor 2,6-dichlorophenol-indophenol (DCIPP) according to Kralova et al., and the rate of photosynthetic electron transport was monitored as a photoreduction of DCPIP. The measurements were carried out in phosphate buffer (0.02 mol/L, pH 7.2) containing sucrose (0.4 mol/L), MgCl2 (0.005 mol/L) and NaCl (0.015 mol/L). The chlorophyll content was 30 mg/L in these experiments and the samples were irradiated (~100 W/m^2) from 10 cm distance with a halogen lamp (250 W) using a 4 cm water filter to prevent warming of the samples (suspension temperature 22 °C). The studied compounds were dissolved in DMSO due to their limited water solubility.

[2] = design: method as in PMID 1151976; settings: parameter of the substituents in the anilide part; cited from earlier work
[3] = test system: human SK-N-MC neuroepithelioma cell line; assay: In vitro anti-proliferative activity, MTT assay; type: cell-based; settings: SK-N-MC cells, 72 h
Experimental: Therefore, the anti-proliferative activity of compounds 1-5 was examined against the human SK-N-MC neuroepithelioma cell line to determine if there were any undesired cytotoxic side-effects. The SK-N-MC cell line was chosen as the effect of iron chelators on the proliferation of these cells has been extensively examined. The anti-proliferative activity of the evaluated compounds was assessed in comparison to the well-known clinically used iron chelator, desferrioxamine (DFO), and the highly cytotoxic chelator, di-2-pyridylketone 4,4-dimethyl-3-thiosemicarbazone (Dp44mT).
The human SK-N-MC neuroepithelioma cell type was obtained from the American Type Culture Collection (Manassas, VA, USA) and was cultured in minimum essential medium (MEM; Gibco, Melbourne, Australia) containing 10% (v/v) FBS, 1.0 mM sodium pyruvate (Gibco), 1% (v/v) non-essential amino acids (Gibco), 2 mM L-glutamine (Gibco), 100 U/mL penicillin (Gibco), streptomycin (Gibco) and 0.28 μg/mL fungizone (Squibb Pharmaceuticals, Montreal, Canada). […]
The effect of the compounds on cellular proliferation was determined by the MTT [1-(4,5-dimethylthiazol-2-yl)-2,5-diphenyl tetrazolium] assay using standard techniques. […] After solubilization of the cells with 100 μL of 10% SDS-50% isobutanol in 0.01 M HCl, the plates were read at 570 nm using a scanning multi-well spectrophotometer.

[4] = Lipophilicity determination by RP-HPLC (capacity factor k / log k); type: physicochemical; settings: C18 column, MeOH 70% / H2O 30%, isocratic
Experimental: Hydrophobicities (log P/Clog P) of the compounds 1-5 and 8-14 were calculated using two commercially available programs (ChemDraw Ultra 10.0 and ACD/LogP) and also measured by means of the RP-HPLC determination of capacity factors k with subsequent calculation of log k. The procedure was performed under isocratic conditions with methanol as an organic modifier in the mobile phase using an end-capped non-polar C18 stationary RP column. The results are shown in Table 1 and illustrated in Figure 1.
A Waters Alliance 2695 XE HPLC separation module and a Waters Photodiode Array Detector 2996 (Waters Corp., Milford, MA, USA) were used. A Symmetry® C18 5 μm, 4.6 × 250 mm, Part No. WAT054275 (Waters Corp., Milford, MA, USA) chromatographic column was used. The HPLC separation process was monitored by Empower™ 2 Chromatography Data Software, Waters 2009 (Waters Corp., Milford, MA, USA). A mixture of MeOH p.a. (70%) and H2O-HPLC – Mili-Q Grade (30%) was used as a mobile phase. The total flow of the column was 1.0 mL/min, injection volume 30 μL, column temperature 30 °C and sample temperature 10°C. The detection wavelength of 210 nm was chosen. The KI methanolic solution was used for the dead time (tD) determination. Retention times (tR) were measured in minutes. The capacity factors k were calculated using the Empower™ 2 Chromatography Data Software according to formula k = (tR - tD)/tD, where tR is the retention time of the solute, whereas tD denotes the dead time obtained using an unretained analyte. Log k, calculated from the capacity factor k, is used as the lipophilicity index converted to log P scale.

[5] = Solubility in the PET testing medium (observation); type: physicochemical; settings: precipitation during the experiments
Description: The activity of the rest of the studied compounds was moderate or low relative to the standard. PET inhibition by 8 or 9 could not be determined due to precipitation of the compounds during the experiments. With respect to these small but closed specifically substituted groups of compounds some structure-activity relationships (SAR) can be proposed.

[6] = test system: methicilin resistant Staphylococcus aureus H 5996/08; assay: In vitro anti-bacterial susceptibility, Mueller-Hinton broth; type: cell-based; settings: MRSA, methicillin-resistant Staphylococcus aureus, MIC = IC90 value, NA = no significant activity
[7] = test system: Staphylococcus epidermidis H 6966/08; assay: as above; type: cell-based; settings: MIC = IC90 value, NA = no significant activity
[8] = test system: Trichophyton mentagrophytes 445; assay: In vitro anti-fungal susceptibility, broth microdilution; type: cell-based; settings: MIC = IC50 value, NA = no significant activity
Experimental: (§1) The broth microdilution test was used for the assessment of in vitro anti-fungal activity of the synthesized compounds against Absidia corymbifera 272 (AC) and Trichophyton mentagrophytes 445 (TM). Fluconazole (FLU) was used as the standard since it is a clinically used anti-mycotic drug. The procedure was performed with a two-fold dilution of the compounds in […]., Prague, Czech Republic) buffered to pH 7.0 with 0.165 mol of 3-morpholino-propane-1-sulfonic acid (MOPS, Sigma, Germany). […] Drug-free controls were included. […] The values of the minimum inhibitory concentration (MICs) were determined after 24 and 48 h of static incubation at 35 °C. For T. mentagrophytes, the final MICs were determined after 72 and 120 h of incubation.

[9] = test system: Absidia corymbifera 272; assay: as above; type: cell-based
Experimental: as §1

[10] = test system: photosynthetic apparatus of spinach chloroplasts (PS 2 / PS 1); assay: Site of action: restoration of PET by artificial electron donors (DPC, DCPIPH2); type: biochemical, Spinacia oleracea L.
Experimental: To further determine the site of action of the studied compounds, experiments with 1,5-diphenylcarbazide (DPC) were performed. DPC is an artificial electron donor for PS 2 with a known site of action in the Z^•/D^• intermediate. The site of action of the artificial electron acceptor 2,6-dichlorophenol-indophenol (DCPIP) used for monitoring the Hill reaction is plastoquinone on the acceptor side of PS 2 [51]. Thus, if the part of the photosynthetic electron transport chain between manganese cluster and Z/D is inhibited, then DPC will restore PET through PS 2.

[11] = H6966/08, 24 h, read-out: MIC SE 24 h
[12] = H6966/08, 48 h, read-out: MIC SE 48 h
[13] = Lichtheimia corymbifera, 272, 24 h, read-out: MIC AC 24 h
[14] = Lichtheimia corymbifera, 272, 48 h, read-out: MIC AC 48 h

Nc1ccc(C(=O)Nc2cc(C(F)(F)F)ccc2Cl)cc1 [Compound 12, 4-Amino-N-[2-chloro-5-(trifluoromethyl)phenyl]benzamide]
PET-inhibiting / biological activity in words [1]: did not show any biological activity in any of the assays | MR (bulk parameter, reflecting bulkiness) [2]: 8.7 | σ (Hammett's parameter) [2]: 1.10

CC(=O)N(O)CCCCCNC(=O)CCC(=O)N(O)CCCCCNC(=O)CCC(=O)N(O)CCCCCN [DFO, desferrioxamine]
IC50 ([3]; Homo sapiens): 17.1 ± 3.77 µM

O=C(Nc1ccccc1Cl)c1ccc([N+](=O)[O-])cc1 [Compound 8, N-(2-Chlorophenyl)-4-nitrobenzamide]
log k [4]: 0.6782 | solubility in the testing medium [5]: low solubility | MR (bulk parameter, reflecting bulkiness) [2]: 4.7 | σ (Hammett's parameter) [2]: 0.67

CCCOc1ccccc1NC(=O)c1ccccc1O [Compound 5, 2-Hydroxy-N-(2-propoxyphenyl)benzamide]
IC50 [1]: 44.8 µM | log k [4]: 0.8401 | MIC ([6]; 24 h, read-out: MIC MRSA 24 h): 31.2 µM (≈ 8.48 µg/mL) | MIC ([6]; 48 h, read-out: MIC MRSA 48 h): 31.2 µM (≈ 8.48 µg/mL) | MIC [7, 11]: 31.2 µM (≈ 8.48 µg/mL) | MIC [7, 12]: 31.2 µM (≈ 8.48 µg/mL) | MIC ([8]; 72 h, read-out: MIC TM 72 h): 31.2 µM (≈ 8.48 µg/mL) | MIC ([8]; 120 h, read-out: MIC TM 120 h): 31.2 µM (≈ 8.48 µg/mL) | MIC [9, 13]: 31.2 µM (≈ 8.48 µg/mL) | MIC [9, 14]: 31.2 µM (≈ 8.48 µg/mL) | MR (bulk parameter, reflecting bulkiness) [2]: 15.9

Cc1cccc(C)c1NC(=O)c1ccccc1O [Compound 2, N-(2,6-Dimethylphenyl)-2-hydroxybenzamide]
IC50 [1]: 331 µM | log k [4]: 0.6807 | MIC ([6]; 24 h, read-out: MIC MRSA 24 h): > 500 µM | MIC ([6]; 48 h, read-out: MIC MRSA 48 h): > 500 µM | MIC [7, 11]: > 500 µM | MIC [7, 12]: > 500 µM | MIC ([8]; 72 h, read-out: MIC TM 72 h): 250 µM (≈ 60.3 µg/mL) | MIC ([8]; 120 h, read-out: MIC TM 120 h): 500 µM (≈ 121 µg/mL) | MIC [9, 13]: > 250 µM | MIC [9, 14]: > 250 µM | MR (bulk parameter, reflecting bulkiness) [2]: 9.4 | σ (Hammett's parameter) [2]: 0.20

COC(=O)Nc1ccc(C(=O)NCc2ccccc2Cl)cc1 [Compound 13, Methyl 4-(2-chlorobenzylcarbamoyl)phenylcarbamate]
IC50 [1]: 1.6 µM | log k [4]: 0.6345 | restoration of PET through PS 1 after addition of DCPIPH2 ([10]; DCPIPH2 40 μmol/L added to treated chloroplasts): completely restored | restoration of PET through PS 2 after addition of DPC ([10]; DPC 2 mmol/L added to treated chloroplasts): not restored | MR (bulk parameter, reflecting bulkiness) [2]: 4.7 | σ (Hammett's parameter) [2]: 0.67

Nc1ccc(C(=O)NCc2ccccc2Cl)cc1 [Compound 11, 4-Amino-N-(2-chlorobenzyl)benzamide]
PET-inhibiting / biological activity in words [1]: very low activity | IC50 [1]: 398 µM | log k [4]: 0.5886 | MR (bulk parameter, reflecting bulkiness) [2]: 4.7 | σ (Hammett's parameter) [2]: 0.67

OC(Cn1cncn1)(Cn1cncn1)c1ccc(F)cc1F [FLU, Fluconazole, reference compound]
MIC ([8]; 72 h, read-out: MIC TM 72 h): 1.95 µM (≈ 0.597 µg/mL) | MIC ([8]; 120 h, read-out: MIC TM 120 h): 3.91 µM (≈ 1.2 µg/mL) | MIC [9, 13]: > 125 µM | MIC [9, 14]: > 125 µM

O=C(NCc1ccccc1Cl)c1ccc([N+](=O)[O-])cc1 [Compound 9, N-(2-Chlorobenzyl)-4-nitrobenzamide]
log k [4]: 0.6966 | solubility in the testing medium [5]: low solubility | MR (bulk parameter, reflecting bulkiness) [2]: 4.7 | σ (Hammett's parameter) [2]: 0.67

CCOc1ccccc1NC(=O)c1ccccc1O [Compound 4, N-(2-Ethoxyphenyl)-2-hydroxybenzamide]
IC50 [1]: 15 µM | log k [4]: 0.7515 | MIC ([6]; 24 h, read-out: MIC MRSA 24 h): 125 µM (≈ 32.2 µg/mL) | MIC ([6]; 48 h, read-out: MIC MRSA 48 h): 125 µM (≈ 32.2 µg/mL) | MIC [7, 11]: 125 µM (≈ 32.2 µg/mL) | MIC [7, 12]: 125 µM (≈ 32.2 µg/mL) | MIC ([8]; 72 h, read-out: MIC TM 72 h): 62.5 µM (≈ 16.1 µg/mL) | MIC ([8]; 120 h, read-out: MIC TM 120 h): 62.5 µM (≈ 16.1 µg/mL) | MIC [9, 13]: 62.5 µM (≈ 16.1 µg/mL) | MIC [9, 14]: 125 µM (≈ 32.2 µg/mL) | MR (bulk parameter, reflecting bulkiness) [2]: 11.3 | σ (Hammett's parameter) [2]: 0.02

COC(=O)Nc1ccc(C(=O)Nc2cc(C(F)(F)F)ccc2Cl)cc1 [Compound 14, Methyl 4-[2-chloro-5-(trifluoromethyl)phenylcarbamoyl]phenylcarbamate]
IC50 [1]: 1 µM | log k [4]: 0.7782 | MR (bulk parameter, reflecting bulkiness) [2]: 8.7 | σ (Hammett's parameter) [2]: 1.10

O=C(Nc1cc(C(F)(F)F)ccc1Cl)c1ccc([N+](=O)[O-])cc1 [Compound 10, N-[2-Chloro-5-(trifluoromethyl)phenyl]-4-nitrobenzamide]
PET-inhibiting / biological activity in words [1]: medium PET inhibiting activity | IC50 [1]: 50.1 µM | log k [4]: 0.8269 | MR (bulk parameter, reflecting bulkiness) [2]: 8.7 | σ (Hammett's parameter) [2]: 1.10

CC1(C)S[C@@H]2[C@H](NC(=O)Cc3ccccc3)C(=O)N2[C@H]1C(=O)O [PEN, Penicillin G, reference compound]
MIC ([6]; 24 h, read-out: MIC MRSA 24 h): 125 µM (≈ 41.8 µg/mL) | MIC ([6]; 48 h, read-out: MIC MRSA 48 h): 125 µM (≈ 41.8 µg/mL) | MIC [7, 11]: 31.6 µM (≈ 10.6 µg/mL) | MIC [7, 12]: 125 µM (≈ 41.8 µg/mL)

CN(C)C(=S)NN=C(c1ccccn1)c1ccccn1 [Dp44mT, di-2-pyridylketone 4,4-dimethyl-3-thiosemicarbazone]
IC50 [3]: 0.01 ± 0.01 µM
